{"source": "ChEMBL document CHEMBL3351528", "about": "“Targeting dopamine D3 and serotonin 5-HT1A and 5-HT2A receptors for developing effective antipsychotics: synthesis, biological characterization, and behavioral studies” (J Med Chem, 2014)", "key": {"Rattus norvegicus [1]": {"system": "Rattus norvegicus", "assay": "Reduction in blood pressure in anaesthetized rat at 10 mg/kg, iv", "format": "functional, organism-based", "set-up": "dose 10 mg/kg"}, "Rattus norvegicus [2]": {"system": "Rattus norvegicus", "assay": "Increase in heart rate in anaesthetized rat at 10 mg/kg, iv", "format": "functional, organism-based", "set-up": "dose 10 mg/kg"}, "D(3) dopamine receptor [3]": {"target": "T1, D(3) dopamine receptor (Homo sapiens, UniProt P35462)", "T1 sequence (P35462 whole entry)": "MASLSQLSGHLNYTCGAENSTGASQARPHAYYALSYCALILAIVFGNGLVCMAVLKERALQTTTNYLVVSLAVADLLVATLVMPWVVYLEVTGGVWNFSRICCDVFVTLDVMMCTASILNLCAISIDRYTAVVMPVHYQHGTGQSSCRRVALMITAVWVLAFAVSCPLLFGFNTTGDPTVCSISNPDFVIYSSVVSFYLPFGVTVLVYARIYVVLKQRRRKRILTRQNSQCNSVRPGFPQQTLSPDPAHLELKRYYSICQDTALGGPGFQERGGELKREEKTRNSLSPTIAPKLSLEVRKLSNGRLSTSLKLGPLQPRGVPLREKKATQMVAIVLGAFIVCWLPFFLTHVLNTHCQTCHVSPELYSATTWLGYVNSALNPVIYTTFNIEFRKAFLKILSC", "assay": "Agonist activity at human dopamine D3 receptor expressed in CHO-K1 cells by [35S]GTPgammaS binding assay relative to dopamine", "format": "functional, cell-based"}, "D(3) dopamine receptor [4]": {"target": "T1, D(3) dopamine receptor", "assay": "Antagonist activity at human dopamine D3 receptor expressed in CHO-K1 cells assessed as reduction in dopamine-induced response by [35S]GTPgammaS binding assay relative to control", "format": "functional, cell-based", "details": "concentration not given here"}, "[5]": {"target": "T2, 5-hydroxytryptamine receptor 1A (Homo sapiens) (UniProt P08908)", "T2 sequence (whole entry)": "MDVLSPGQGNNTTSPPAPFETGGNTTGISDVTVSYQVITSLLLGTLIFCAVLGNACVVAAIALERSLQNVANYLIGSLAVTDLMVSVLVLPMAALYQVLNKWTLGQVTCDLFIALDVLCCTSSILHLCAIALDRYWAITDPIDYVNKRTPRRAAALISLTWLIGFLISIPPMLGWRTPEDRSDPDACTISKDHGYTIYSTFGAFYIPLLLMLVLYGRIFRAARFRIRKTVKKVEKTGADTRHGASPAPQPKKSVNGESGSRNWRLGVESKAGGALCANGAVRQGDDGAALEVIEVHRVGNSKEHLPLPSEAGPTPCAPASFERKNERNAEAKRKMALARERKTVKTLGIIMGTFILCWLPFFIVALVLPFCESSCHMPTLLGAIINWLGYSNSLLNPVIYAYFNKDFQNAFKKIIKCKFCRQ", "assay": "Agonist activity at human 5HT1A receptor (unknown origin) expressed in CHO cells by [35S]GTPgammaS binding assay relative to 5-HT", "format": "functional, cell-based"}, "[6]": {"target": "T2, 5-hydroxytryptamine receptor 1A (Homo sapiens)", "assay": "Antagonist activity at human 5HT1A receptor (unknown origin) expressed in CHO cells reduction in 5-HT-induced response by [35S]GTPgammaS binding assay", "format": "functional, cell-based", "details": "concentration not given here"}, "[7]": {"target": "5-hydroxytryptamine receptor 2A (Rattus norvegicus) (UniProt P14842)", "sequence (P14842 whole entry)": "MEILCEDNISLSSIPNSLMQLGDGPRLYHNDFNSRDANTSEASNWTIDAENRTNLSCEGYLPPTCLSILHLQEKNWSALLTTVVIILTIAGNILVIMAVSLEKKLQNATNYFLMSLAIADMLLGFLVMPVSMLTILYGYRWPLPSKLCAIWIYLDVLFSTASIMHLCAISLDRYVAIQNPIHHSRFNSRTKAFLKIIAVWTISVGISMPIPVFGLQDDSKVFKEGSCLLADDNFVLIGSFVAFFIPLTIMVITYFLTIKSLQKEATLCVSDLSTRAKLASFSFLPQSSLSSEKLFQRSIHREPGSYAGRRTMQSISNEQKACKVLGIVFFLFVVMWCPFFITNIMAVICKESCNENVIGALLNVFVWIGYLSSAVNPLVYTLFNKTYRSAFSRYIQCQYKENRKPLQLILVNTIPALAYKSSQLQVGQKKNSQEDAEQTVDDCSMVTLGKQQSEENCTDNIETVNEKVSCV", "assay": "Antagonist activity at 5HT2A receptor in rat aortic rings assessed as reduction in 5-HT-induced contraction relative to control", "details": "concentration not given here"}, "Rattus norvegicus [8]": {"system": "Rattus norvegicus", "assay": "Induction of c-Fos in ip dosed rat nucleus accumbens", "format": "functional, organism-based"}, "Rattus norvegicus [9]": {"system": "Rattus norvegicus", "assay": "Induction of c-Fos in rat nucleus accumbens shell region at 3 to 30 mg/kg, ip", "format": "functional, organism-based"}, "Rattus norvegicus [10]": {"system": "Rattus norvegicus", "assay": "Induction of c-Fos in rat nucleus accumbens core region at 10 mg/kg, ip", "format": "functional, organism-based", "set-up": "dose 10 mg/kg"}, "Rattus norvegicus [11]": {"system": "Rattus norvegicus", "assay": "Induction of c-Fos in rat nucleus accumbens core region at 30 mg/kg, ip", "format": "functional, organism-based", "set-up": "dose 30 mg/kg"}, "Rattus norvegicus [12]": {"system": "Rattus norvegicus", "assay": "Induction of c-Fos in rat dorsolateral striatum region at 30 mg/kg, ip", "format": "functional, organism-based", "set-up": "dose 30 mg/kg"}, "Mus musculus [13]": {"system": "Mus musculus", "assay": "Anti-psychotic activity in mouse assessed as amelioration of PCP-induced disruption of prepulse inhibition at 3 mg/kg, po", "format": "functional, organism-based", "set-up": "dose 3 mg/kg"}, "Mus musculus [14]": {"system": "Mus musculus", "assay": "Anti-psychotic activity in mouse assessed as amelioration of PCP-induced disruption of prepulse inhibition at 30 mg/kg, po", "format": "functional, organism-based", "set-up": "dose 30 mg/kg"}, "Mus musculus [15]": {"system": "Mus musculus", "assay": "Increase in prepulse inhibition in mouse at 30 mg/kg, po dosed 30 mins before testing", "format": "functional, organism-based", "set-up": "dose 30 mg/kg"}, "Mus musculus [16]": {"system": "Mus musculus", "assay": "Anxiolytic activity in orally dosed mouse dosed 30 mins before test by marble burying method", "format": "functional, organism-based"}, "Rattus norvegicus [17]": {"system": "Rattus norvegicus", "assay": "Increase in dopamine release in Wistar rat medial prefrontal cortex at 10 mg/kg, sc measured for 90 mins administered as single dose by microdialysis method", "format": "functional, organism-based", "set-up": "dose 10 mg/kg"}, "Rattus norvegicus [18]": {"system": "Rattus norvegicus", "assay": "Increase in dopamine release in Wistar rat nucleus accumbens at 10 mg/kg, sc measured during 0 to 90 mins administered as single dose by microdialysis method", "format": "functional, organism-based", "set-up": "dose 10 mg/kg"}, "Mus musculus [19]": {"system": "Mus musculus", "assay": "Toxicity in mouse assessed as induction of memory impairment by measuring […] to enter dark compartment at 10 mg/kg, po administered 30 mins before training by passive avoidance test", "format": "organism-based", "set-up": "dose 10 mg/kg, route oral", "details": "in vivo, 0.5 h"}, "Mus musculus [20]": {"system": "Mus musculus", "assay": "Antipsychotic-like activity in NMRI mouse assessed as reduction in […]-induced locomotor activity at 1 mg/kg, sc dosed 15 to 30 mins before administration of methamphetamine measured for 60 mins", "format": "functional, organism-based", "set-up": "dose 1 mg/kg"}, "Mus musculus [21]": {"organism": "Mus musculus", "details": "in vivo, sc, 0.5 h", "description": "Effect on spontaneous exploratory locomotor activity in sc dosed NMRI mouse measured for 30 mins with activity counts each 5 mins"}, "Mus musculus [22]": {"organism": "Mus musculus", "assay": "animal or person", "details": "NMRI, sc; for minimal effective dose: read-out: MED", "description": "Antipsychotic-like activity in sc dosed NMRI mouse assessed as reduction in methamphetamine-induced locomotor activity dosed 15 to 30 mins before administration of methamphetamine measured for 60 mins"}, "Mus musculus [23]": {"organism": "Mus musculus", "assay": "animal or person", "details": "NMRI, sc; for minimal effective dose: read-out: MED", "remark": "listed apart in the source", "description": "Antipsychotic-like activity in sc dosed NMRI mouse assessed as reduction in PCP-induced locomotor activity dosed 15 to 30 mins before administration of methamphetamine measured for 60 mins"}, "D(2) dopamine receptor": {"target": "D(2) dopamine receptor (Homo sapiens, UniProt P14416)", "sequence (P14416 whole entry)": "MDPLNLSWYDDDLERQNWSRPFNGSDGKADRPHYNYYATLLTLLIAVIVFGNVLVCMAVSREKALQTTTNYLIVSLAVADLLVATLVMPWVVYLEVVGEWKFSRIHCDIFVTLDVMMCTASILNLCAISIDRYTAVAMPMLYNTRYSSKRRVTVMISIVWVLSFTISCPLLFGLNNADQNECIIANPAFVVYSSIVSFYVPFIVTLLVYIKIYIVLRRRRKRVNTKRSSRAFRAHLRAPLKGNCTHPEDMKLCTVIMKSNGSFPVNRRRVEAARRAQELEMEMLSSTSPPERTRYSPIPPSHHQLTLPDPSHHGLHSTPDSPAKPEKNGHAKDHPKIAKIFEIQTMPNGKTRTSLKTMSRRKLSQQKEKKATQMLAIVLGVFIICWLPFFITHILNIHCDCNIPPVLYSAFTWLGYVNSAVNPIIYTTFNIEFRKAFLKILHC", "description": "Binding affinity to dopamine D2 receptor (unknown origin)"}, "[24]": {"target": "5-hydroxytryptamine receptor 2A (Homo sapiens, UniProt P28223)", "sequence (P28223 whole entry)": "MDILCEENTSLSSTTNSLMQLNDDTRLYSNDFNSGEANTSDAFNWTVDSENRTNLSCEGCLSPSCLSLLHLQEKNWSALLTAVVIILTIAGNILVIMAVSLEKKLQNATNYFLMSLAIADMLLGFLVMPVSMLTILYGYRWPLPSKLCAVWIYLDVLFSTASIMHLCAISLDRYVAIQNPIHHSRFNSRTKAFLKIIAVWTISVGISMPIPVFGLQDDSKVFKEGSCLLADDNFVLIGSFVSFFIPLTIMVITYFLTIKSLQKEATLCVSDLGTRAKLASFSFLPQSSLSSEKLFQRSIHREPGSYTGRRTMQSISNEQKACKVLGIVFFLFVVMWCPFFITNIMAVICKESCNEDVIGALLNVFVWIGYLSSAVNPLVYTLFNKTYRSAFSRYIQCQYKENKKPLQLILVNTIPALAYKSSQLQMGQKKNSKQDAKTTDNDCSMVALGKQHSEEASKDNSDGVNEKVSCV", "description": "Binding affinity to 5HT2A receptor (unknown origin)"}, "Mus musculus [25]": {"system": "Mus musculus", "assay": "Antipsychotic-like activity in sc dosed NMRI mouse assessed as reduction in MK801-induced locomotor activity dosed 15 to 30 mins before administration of MK801 measured for 60 mins", "format": "functional", "details": "read-out: MED"}, "Mus musculus [26]": {"system": "Mus musculus", "assay": "Toxicity in NMRI mouse assessed as induction of tremors at 10 mg/kg, sc dosed 30 mins before test", "format": "organism-based", "set-up": "dose 10 mg/kg, route subcutaneous", "details": "in vivo, 0.5 h"}, "D(3) dopamine receptor [27]": {"target": "T1, D(3) dopamine receptor", "description": "Binding affinity to dopamine D3 receptor (unknown origin)"}, "[28]": {"target": "T3, 5-hydroxytryptamine receptor 1A (Homo sapiens, UniProt P08908)", "T3 sequence (P08908 whole entry)": "T2 sequence (whole entry)", "description": "Binding affinity to 5HT1A receptor (unknown origin)"}, "[29]": {"target": "T4, 5-hydroxytryptamine receptor 2C (Homo sapiens, UniProt P28335)", "T4 sequence (P28335 whole entry)": "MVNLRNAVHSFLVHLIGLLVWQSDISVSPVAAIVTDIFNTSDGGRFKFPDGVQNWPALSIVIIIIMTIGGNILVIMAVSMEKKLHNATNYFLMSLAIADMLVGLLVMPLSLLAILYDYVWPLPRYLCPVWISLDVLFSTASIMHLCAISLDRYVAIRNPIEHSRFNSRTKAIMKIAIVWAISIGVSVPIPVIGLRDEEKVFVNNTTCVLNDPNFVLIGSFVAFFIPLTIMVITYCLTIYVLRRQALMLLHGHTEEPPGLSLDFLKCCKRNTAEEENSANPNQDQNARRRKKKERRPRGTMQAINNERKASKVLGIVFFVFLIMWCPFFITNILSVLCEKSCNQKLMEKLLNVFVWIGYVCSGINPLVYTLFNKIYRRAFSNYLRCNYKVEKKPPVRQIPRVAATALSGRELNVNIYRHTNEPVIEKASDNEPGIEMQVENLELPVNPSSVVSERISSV", "description": "Binding affinity to 5HT2C receptor (unknown origin)"}, "Mus musculus [30]": {"system": "Mus musculus", "assay": "Toxicity in NMRI mouse assessed as induction of sedation at 10 and 30 mg/kg, sc dosed 30 mins before test", "format": "organism-based", "set-up": "dose 30 mg/kg, route subcutaneous", "details": "in vivo, 0.5 h"}}, "note": "Calls of active or inactive are those of the source. No cut-off for these calls is given here."}
{"molecule": "O=C(NCCCCN1CCN(c2ccccc2)CC1)c1ccc2ncccc2c1", "values": [{"measurement": "Activity", "setting": "Rattus norvegicus [1]", "value": "Active"}, {"measurement": "Activity", "setting": "Rattus norvegicus [2]", "value": "Active"}, {"measurement": "Activity", "setting": "D(3) dopamine receptor [3]", "value": 21, "unit": "%"}, {"measurement": "inhibition", "setting": "D(3) dopamine receptor [4]", "value": 69, "unit": "%"}, {"measurement": "Activity", "setting": "[5]", "value": 66, "unit": "%"}, {"measurement": "inhibition", "setting": "[6]", "value": 19, "unit": "%"}, {"measurement": "inhibition", "setting": "[7]", "value": 94, "unit": "%"}, {"measurement": "Activity", "setting": "Rattus norvegicus [8]", "value": "Dose-dependent effect"}, {"measurement": "Activity", "setting": "Rattus norvegicus [9]", "value": "Active"}, {"measurement": "Activity", "setting": "Rattus norvegicus [10]", "value": "inactive"}, {"measurement": "Activity", "setting": "Rattus norvegicus [11]", "value": "Active"}, {"measurement": "Activity", "setting": "Rattus norvegicus [12]", "value": "Active"}, {"measurement": "Activity", "setting": "Mus musculus [13]", "value": "Active"}, {"measurement": "Activity", "setting": "Mus musculus [14]", "value": "inactive"}, {"measurement": "Activity", "setting": "Mus musculus [15]", "value": "Active"}, {"measurement": "Activity", "setting": "Mus musculus [16]", "value": "Dose-dependent effect"}, {"measurement": "Activity", "setting": "Rattus norvegicus [17]", "value": "Active"}, {"measurement": "Activity", "setting": "Rattus norvegicus [18]", "value": "inactive"}]}
{"molecule": "CN1CCN(C2=Nc3cc(Cl)ccc3Nc3ccccc32)CC1", "note": "[CLOZAPINE]", "values": [{"measurement": "Activity", "setting": "Mus musculus [19]", "value": "Toxic"}, {"measurement": "Activity", "setting": "Mus musculus [20]", "value": "Active"}, {"measurement": "ED50", "setting": "Mus musculus [21]", "value": 2.4, "unit": "mg/kg"}, {"measurement": "ED50", "setting": "Mus musculus [22]", "value": 1.1, "unit": "mg/kg"}, {"measurement": "ED50", "setting": "Mus musculus [23]", "value": 2.5, "unit": "mg/kg"}]}
{"molecule": "O=C(NCCCCN1CCN(c2ccccc2)CC1)c1cc2ccccc2o1", "values": [{"measurement": "Ki", "setting": "D(2) dopamine receptor", "value": "> 1000", "unit": "nM"}, {"measurement": "Ki", "setting": "[24]", "value": 392, "unit": "nM"}, {"measurement": "minimal effective dose", "setting": "Mus musculus [25]", "value": 3, "unit": "mg/kg"}, {"measurement": "Activity", "setting": "Mus musculus [26]", "value": "Toxic"}, {"measurement": "Ki", "setting": "D(3) dopamine receptor [27]", "value": 4, "unit": "nM"}, {"measurement": "Ki", "setting": "[28]", "value": 30, "unit": "nM"}, {"measurement": "Ki", "setting": "[29]", "value": "> 1000", "unit": "nM"}, {"measurement": "MED", "setting": "Mus musculus [21]", "value": "<= 0.3 mg kg-1"}, {"measurement": "minimal effective dose", "setting": "Mus musculus [22]", "value": "≤ 1", "unit": "mg/kg"}, {"measurement": "minimal effective dose", "setting": "Mus musculus [23]", "value": "≤ 0.3", "unit": "mg/kg"}]}
{"molecule": "COc1cccc(N2CCN(CCCCNC(=O)c3cc4ccccc4cn3)CC2)c1", "values": [{"measurement": "Ki", "setting": "D(2) dopamine receptor", "value": "> 1000", "unit": "nM"}, {"measurement": "Ki", "setting": "[24]", "value": 33, "unit": "nM"}, {"measurement": "minimal effective dose", "setting": "Mus musculus [25]", "value": 10, "unit": "mg/kg"}, {"measurement": "Activity", "setting": "Mus musculus [30]", "value": "Toxic"}, {"measurement": "Ki", "setting": "D(3) dopamine receptor [27]", "value": 9.4, "unit": "nM"}, {"measurement": "Ki", "setting": "[28]", "value": 7.9, "unit": "nM"}, {"measurement": "Ki", "setting": "[29]", "value": 190, "unit": "nM"}, {"measurement": "MED", "setting": "Mus musculus [21]", "value": 10, "unit": "mg/kg"}, {"measurement": "minimal effective dose", "setting": "Mus musculus [22]", "value": "≤ 1", "unit": "mg/kg"}, {"measurement": "minimal effective dose", "setting": "Mus musculus [23]", "value": 10, "unit": "mg/kg"}]}
